From the NIST ThermoML archive (doi:10.1021/acs.jced.5b00197)

Legend:
[1] = 96.64 kPa, Liquid, mechanical oscillator
[2] = refractive index (Na D-line) (dimensionless); conditions: 94.64 kPa, Liquid, Standard Abbe refractometry
[3] = refractive index (other wavelength) (dimensionless); conditions: 94.64 kPa, Liquid, Standard Abbe refractometry
[4] = refractive index (Na D-line) (dimensionless); xn = mol fraction of the nth substance listed; conditions: 94.64 kPa, Liquid, Standard Abbe refractometry, x2 = 0
[5] = xn = mol fraction of the nth substance listed; conditions: 96.64 kPa, Liquid, mechanical oscillator, x2 = 0
[6] = refractive index (other wavelength) (dimensionless); xn = mol fraction of the nth substance listed; conditions: 94.64 kPa, Liquid, Standard Abbe refractometry, x2 = 0

CC(=O)O [acetic acid]
Conditions | mass density, 293.15 K [kg/m3] | mass density, 298.15 K [kg/m3] | mass density, 303.15 K [kg/m3] | refractive index, 293.15 K | refractive index, 298.15 K | refractive index, 303.15 K
[1] | 1049.63 | 1043.57 | 1037.64 | – | – | –
[2] | – | – | – | 1.37224 | 1.37012 | 1.36809

refractive index, [3]
Conditions | Wavelength=404.7 nm | Wavelength=435.8 nm | Wavelength=486.1 nm | Wavelength=546.1 nm | Wavelength=587.6 nm | Wavelength=632.8 nm | Wavelength=644 nm | Wavelength=706.5 nm
293.15 K | 1.38345 | 1.38034 | 1.37681 | 1.37386 | 1.3723 | 1.37087 | 1.37055 | 1.36896
298.15 K | 1.38126 | 1.37816 | 1.37466 | 1.37174 | 1.37018 | 1.36876 | 1.36844 | 1.36686
303.15 K | 1.37917 | 1.37611 | 1.37261 | 1.36968 | 1.36815 | 1.36675 | 1.36643 | 1.36485

Cc1ccccc1 [toluene]
Conditions | mass density, 293.15 K [kg/m3] | mass density, 298.15 K [kg/m3] | mass density, 303.15 K [kg/m3] | refractive index, 293.15 K | refractive index, 298.15 K | refractive index, 303.15 K
[1] | 866.75 | 861.74 | 856.81 | – | – | –
[2] | – | – | – | 1.49687 | 1.49406 | 1.49124

refractive index, [3]
Conditions | Wavelength=404.7 nm | Wavelength=435.8 nm | Wavelength=486.1 nm | Wavelength=546.1 nm | Wavelength=587.6 nm | Wavelength=632.8 nm | Wavelength=644 nm | Wavelength=706.5 nm
293.15 K | 1.52597 | 1.51768 | 1.50826 | 1.50069 | 1.497 | 1.49379 | 1.49306 | 1.48975
298.15 K | 1.52295 | 1.51473 | 1.50537 | 1.49785 | 1.49419 | 1.49101 | 1.49028 | 1.48697
303.15 K | 1.51996 | 1.51177 | 1.50248 | 1.495 | 1.49137 | 1.4882 | 1.48748 | 1.48419

Cc1ccccc1 [toluene] + CC(=O)O
Conditions | mass density, 293.15 K [kg/m3] | mass density, 298.15 K [kg/m3] | mass density, 303.15 K [kg/m3] | refractive index, 293.15 K | refractive index, 298.15 K | refractive index, 303.15 K
[4] | – | – | – | 1.49687 | 1.49406 | 1.49124
[5] | 866.75 | 861.74 | 856.81 | – | – | –

refractive index, [6]
Conditions | Wavelength=404.7 nm | Wavelength=435.8 nm | Wavelength=486.1 nm | Wavelength=546.1 nm | Wavelength=587.6 nm | Wavelength=632.8 nm | Wavelength=644 nm | Wavelength=706.5 nm
293.15 K | 1.52597 | 1.51768 | 1.50826 | 1.50069 | 1.497 | 1.49379 | 1.49306 | 1.48975
298.15 K | 1.52295 | 1.51473 | 1.50537 | 1.49785 | 1.49419 | 1.49101 | 1.49028 | 1.48697
303.15 K | 1.51996 | 1.51177 | 1.50248 | 1.495 | 1.49137 | 1.4882 | 1.48748 | 1.48419

O [water]
Conditions | mass density, 298.15 K [kg/m3] | mass density, 303.15 K [kg/m3] | refractive index, 293.15 K | refractive index, 298.15 K | refractive index, 303.15 K
[1] | 996.61 | 994.87 | – | – | –
[2] | – | – | 1.33308 | 1.33257 | 1.33198

refractive index, [3]
Conditions | Wavelength=404.7 nm | Wavelength=435.8 nm | Wavelength=486.1 nm | Wavelength=546.1 nm | Wavelength=587.6 nm | Wavelength=632.8 nm | Wavelength=644 nm | Wavelength=706.5 nm
293.15 K | 1.34276 | 1.34021 | 1.33716 | 1.33454 | 1.33313 | 1.33183 | 1.33153 | 1.33003
298.15 K | 1.34222 | 1.33968 | 1.33665 | 1.33402 | 1.33262 | 1.33132 | 1.33102 | 1.32954
303.15 K | 1.34161 | 1.33909 | 1.33604 | 1.33344 | 1.33203 | 1.33073 | 1.33044 | 1.32897

O [water] + CC(=O)O
Conditions | mass density, 298.15 K [kg/m3] | mass density, 303.15 K [kg/m3] | refractive index, 293.15 K | refractive index, 298.15 K | refractive index, 303.15 K
[4] | – | – | 1.33308 | 1.33257 | 1.33198
[5] | 996.61 | 994.87 | – | – | –

refractive index, [6]
Conditions | Wavelength=404.7 nm | Wavelength=435.8 nm | Wavelength=486.1 nm | Wavelength=546.1 nm | Wavelength=587.6 nm | Wavelength=632.8 nm | Wavelength=644 nm | Wavelength=706.5 nm
293.15 K | 1.34276 | 1.34021 | 1.33716 | 1.33454 | 1.33313 | 1.33183 | 1.33153 | 1.33003
298.15 K | 1.34222 | 1.33968 | 1.33665 | 1.33402 | 1.33262 | 1.33132 | 1.33102 | 1.32954
303.15 K | 1.34161 | 1.33909 | 1.33604 | 1.33344 | 1.33203 | 1.33073 | 1.33044 | 1.32897
